Test results published in patent US6107068A, “Coenzyme A disulfide reductase, and inhibitors thereof useful as antimicrobial agents” (The University of British Columbia, priority 1997, dated 2000).

What was measured:
[1] = molecular target: S. aureus coenzyme A disulfide reductase (Staphylococcus aureus, UniProt O52582); assay: Steady state kinetic analysis of NADPH oxidation by disulfide substrates catalyzed by purified CoADR (340 nm)
Description: (§1) DTNB assays were performed in Tris-HCl (20 mM), pH 8.0, containing EDTA (1 mM) (TE buffer), and were monitored at 412 nm for the nitrobenzothiolate anion (e^412 =15,600 M^-1 cm^-1 (Ellman (1959) Arch. Biochem. Biophys. 82:70-77)). […] For kinetic analysis of purified CoADR activity, the oxidation of NADPH was measured as the decrease in absorbance at 340 nm (De^340 =6,220 M^-1 cm^-1), and was carried out in Tris-HCl (50 mM), pH 7.8, containing NaCl (50 mM).
(§2) The specificity of CoADR for these substrates and various other biological disulfides were quantitated kinetically. Kinetic measurements were performed in a 1 cm path-length quartz cuvette maintained at 37° C. […] Enzyme and NADPH were combined in buffer and equilibrated to 37° C., and the reaction was initialized by the addition of the disulfide substrate. The activity of CoADR was monitored at 340 nm as the decrease in absorbance resulting from the oxidation of NADPH. All kinetic measurements were recorded in the linear range, and at least seven substrate concentrations were used for each analysis. Kinetic constants were calculated from a linear least squares fit of the initial velocity data to the Michaelis-Menton equation using the program HyperO.

[2] = background statement, Newton et al. (1996); cited from earlier work
[3] = Cu2+ catalyzed oxidation of thiols (remaining thiol by DTNB); type: physicochemical; conditions: thiol 1 mM, CuCl2 1 mM, Tris-HCl pH 7.5, ambient temperature
Description: To determine the relative stability of CoA to heavy metal-catalyzed oxidation, the rate of Cu^2+ catalyzed oxidation of cysteine, GSH, and CoA were compared. Each sample (2 ml) of thiol (1 mM) in Tris-HCl buffer (20 mM), pH 7.5, containing CuCl2 (1 mM) was incubated at ambient temperature. Thiol determination was then carried out at various times by adding aliquots ([…]) from each sample to a solution ([…]) of DTNB (1 mM) in Tris-HCl buffer (20 mM), pH 8.0, containing EDTA (1 mM). The absorbance of these samples at 412 nm was measured and the concentration of remaining thiol determined.

[4] = molecular target: Coenzyme A disulfide reductase (CoADR) in extracts of Staphylococcus aureus (Staphylococcus aureus, UniProt O52582); assay: Pyridine nucleotide and disulfide dependent reduction of DTNB by dialyzed S. aureus extracts; type: biochemical
Description: Concentrations of […] (and dephosphoCoA disulfide) were measured spectrophotometrically at 340 nm (e^340 =6220 M^-1 cm^-1), 260 nm (e^260 =33,600 M^-1 cm^-1), and 450 nm (e^450 =11,000 M^-1 cm^-1), respectively. DTNB assays were performed in Tris-HCl (20 mM), pH 8.0, containing EDTA (1 mM) (TE buffer), and were monitored at 412 nm for the nitrobenzothiolate anion (e^412 =15,600 M^-1 cm^-1 (Ellman (1959) Arch. Biochem. Biophys. 82:70-77)). Protein concentrations were determined by reaction with bicinchoninic acid and copper sulfate (Deutscher (1990) in Meth. Enzymol., vol. 182. San Diego: Academic Press, Inc.). During purification, CoADR activity in crude extracts was monitored by the NADPH and CoA disulfide dependent reduction of DTNB. DTNB and all substrates were added at 0.1 mM. For kinetic analysis of purified CoADR activity, the oxidation of NADPH was measured as the decrease in absorbance at 340 nm (De^340 =6,220 M^-1 cm^-1), and was carried out in Tris-HCl (50 mM), pH 7.8, containing NaCl (50 mM).
In order to identify the enzyme responsible for maintaining CoA in its reduced form, S. aureus extracts were analyzed for a disulfide reductase specific for CoA disulfide. An overnight culture (10 ml) of R8325-4 was centrifuged (5,000×g, 10 min), resuspended in 3 ml of TE buffer containing lysostaphin (5 mg/ml), and incubated at 37° C. for 30 min until the suspension became viscous. Glass beads (1 g) and PMSF (to 1 mM) were added, the mixture was vortexed for two minutes and then centrifuged (14,000×g, 10 min) to remove the insoluble cellular debris. The resulting viscous lysate was dialyzed exhaustively (3,600 Mr cutoff) against TE buffer. The dialysate was then assayed for the pyridine nucleotide (1 mM) and CoA disulfide (1 mM) dependent reduction of DTNB (1 mM).

[5] = tested on: CC(C)(COP(=O)(O)O)[C@@H](O)C(=O)NCCC(=O)NCCSSCCNC(=O)CCNC(=O)[C@H](O)C(C)(C)COP(=O)(O)O; assay: purified protein, by the assay type; conditions: other: disulfide substrate varied, NADPH maintained at 200 mM, 37° C., nd = no activity detected
Description: as §1, §2

[6] = tested on: CC(C)(COP(=O)(O)OP(=O)(O)OC[C@H]1O[C@@H](n2cnc3c(N)ncnc32)[C@H](O)[C@@H]1O)[C@@H](O)C(=O)NCCC(=O)NCCSSCCNC(=O)CCNC(=O)[C@H](O)C(C)(C)COP(=O)(O)OP(=O)(O)OC[C@H]1O[C@@H](n2cnc3c(N)ncnc32)[C@H](O)[C@@H]1O; assay: purified protein, by the assay type; conditions: other: disulfide substrate varied, NADPH maintained at 200 mM, 37° C., nd = no activity detected
Description: as §1, §2

[7] = tested on: CC(C)(COP(=O)(O)OP(=O)(O)OC[C@H]1O[C@@H](n2cnc3c(N)ncnc32)[C@H](O)[C@@H]1OP(=O)(O)O)[C@@H](O)C(=O)NCCC(=O)NCCSSCCNC(=O)CCNC(=O)[C@H](O)C(C)(C)COP(=O)(O)OP(=O)(O)OC[C@H]1O[C@@H](n2cnc3c(N)ncnc32)[C@H](O)[C@@H]1OP(=O)(O)O; assay: purified protein, by the assay type; conditions: other: disulfide substrate varied, NADPH maintained at 200 mM, 37° C., nd = no activity detected
Description: as §1, §2

[8] = tested on: CC(C)(COP(=O)(O)OP(=O)(O)OC[C@H]1O[C@@H](n2cnc3c(N)ncnc32)[C@H](O)[C@@H]1OP(=O)(O)O)[C@@H](O)C(=O)NCCC(=O)NCCSSC[C@H](NC(=O)CC[C@H](N)C(=O)O)C(=O)NCC(=O)O; assay: purified protein, by the assay type; conditions: other: disulfide substrate varied, NADPH maintained at 200 mM, 37° C., nd = no activity detected
Description: as §1, §2

[9] = tested on: NC(=O)C1=CN([C@@H]2O[C@H](COP(=O)(O)OP(=O)(O)OC[C@H]3O[C@@H](n4cnc5c(N)ncnc54)[C@H](OP(=O)(O)O)[C@@H]3O)[C@@H](O)[C@H]2O)C=CC1; assay: purified protein, by the assay type
Description: as §1, §2

[10] = molecular target: the molecule itself; assay: gel exclusion chromatography of the native enzyme (approximately 85 kD) compared with SDS-PAGE of the subunit (~50 kD)
[11] = other: NADPH varied, CoA disulfide maintained at 120 mM, 37° C.

Chain of S. aureus coenzyme A disulfide reductase (O52582 2-438): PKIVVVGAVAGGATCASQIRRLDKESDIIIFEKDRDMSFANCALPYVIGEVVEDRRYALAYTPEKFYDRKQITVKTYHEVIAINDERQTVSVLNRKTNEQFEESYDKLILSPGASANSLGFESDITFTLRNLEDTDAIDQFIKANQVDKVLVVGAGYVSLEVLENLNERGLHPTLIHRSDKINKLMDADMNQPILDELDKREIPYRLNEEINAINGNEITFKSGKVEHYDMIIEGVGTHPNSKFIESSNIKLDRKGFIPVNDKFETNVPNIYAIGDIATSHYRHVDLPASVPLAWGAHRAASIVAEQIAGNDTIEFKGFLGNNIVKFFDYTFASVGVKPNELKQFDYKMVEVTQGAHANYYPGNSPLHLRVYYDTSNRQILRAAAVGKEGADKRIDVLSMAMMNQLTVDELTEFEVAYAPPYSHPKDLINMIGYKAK
Chain of Coenzyme A disulfide reductase (CoADR) in extracts of Staphylococcus aureus (O52582 2-438): as above

CC(C)(COP(=O)(O)OP(=O)(O)OC[C@H]1O[C@@H](n2cnc3c(N)ncnc32)[C@H](O)[C@@H]1O)[C@@H](O)C(=O)NCCC(=O)NCCSSCCNC(=O)CCNC(=O)[C@H](O)C(C)(C)COP(=O)(O)OP(=O)(O)OC[C@H]1O[C@@H](n2cnc3c(N)ncnc32)[C@H](O)[C@@H]1O [3'-dephospho-CoA disulfide]
change in kcat as compared to CoA disulfide [1]: no detectable change
increase in Km as compared to CoA disulfide [1]: 10 fold

CC(C)(COP(=O)(O)O)[C@@H](O)C(=O)NCCC(=O)NCCSSCCNC(=O)CCNC(=O)[C@H](O)C(C)(C)COP(=O)(O)O [4,4'-diphospho-pantethine]
kcat lower than for 3'-dephospho-CoA disulfide [1]: 2-3 fold

CC(C)(COP(=O)(O)OP(=O)(O)OC[C@H]1O[C@@H](n2cnc3c(N)ncnc32)[C@H](O)[C@@H]1OP(=O)(O)O)[C@@H](O)C(=O)NCCC(=O)NCCS [CoA, Coenzyme A]
stability to heavy metal-catalyzed auto-oxidation [2]: slightly more stable than glutathione

N[C@@H](CCC(=O)N[C@@H](CS)C(=O)NCC(=O)O)C(=O)O [GSH, g-glutamyl-cysteinyl-glycine]
stability to copper-catalyzed autooxidation [3]: much more stable than cysteine

NC(=O)C1=CN([C@@H]2O[C@H](COP(=O)(O)OP(=O)(O)OC[C@H]3O[C@@H](n4cnc5c(N)ncnc54)[C@H](O)[C@@H]3O)[C@@H](O)[C@H]2O)C=CC1 [NADH]
use in the CoA disulfide dependent reduction of DTNB [4]: cannot be used

N[C@@H](CSSC[C@H](N)C(=O)O)C(=O)O [cystine]
function in the NADPH-dependent reduction of DTNB [4]: did not function
turnover / activity with CoADR [1]: No activity could be detected

CC(C)(CO)[C@@H](O)C(=O)NCCC(=O)NCCSSCCNC(=O)CCNC(=O)[C@H](O)C(C)(C)CO [pantethine]
function in the NADPH-dependent reduction of DTNB [4]: did not function
turnover / activity with CoADR [1]: not turned over

S. aureus coenzyme A disulfide reductase (Staphylococcus aureus subsp. aureus NCTC 8325)
Km [5]: 80 µM
Km [6]: 140 µM
Km [7]: 11 µM
Km [8]: 1100 µM
Km [9, 11]: 1.6 µM
kcat [9, 11]: 17 ± 1 s⁻¹
Km ([9]; other: at saturating CoA disulfide, 37.0 °C): 2 µM

B1: Coenzyme A disulfide reductase (CoADR) from Staphylococcus aureus (enzyme)
chain: PKIVVVGAVAGGATCASQIRRLDKESDIIIFEKDRDMSFANCALPYVIGEVVEDRRYALAYTPEKFYDRKQITVKTYHEVIAINDERQTVSVLNRKTNEQFEESYDKLILSPGASANSLGFESDITFTLRNLEDTDAIDQFIKANQVDKVLVVGAGYVSLEVLENLNERGLHPTLINRSDKINKLMDADMNQPILDELDKREIPYRLNEEINAINGNEITFKSGKVEHYDMIIEGVGTHPNSKFIESSNIKLDRKGFIPVNDKFETNVPNIYAIGDIATSHYRHVDLPASVPLAWGAHRAASIVAEQIAGNDTIEFKGFLGNNIVKFFDYTFASVGVKPNELKQFDYKMVEVTQGAHANYYPGNSPLHLRVYYDTSNRQILRAAAVGKEGADKRIDVLSMAMMNQLTVDELTEFEVAYAPPYSHPKDLINMIGYKAK
binding result [10]: binds
